Assay results published in the supplement of paper PMC8092582.
Structures can show the parent of a compound that is named as a salt. ± gives the standard deviation of the averaged measurements.

Tested on: HeLa
Assay: cell viability (CellTiter-Glo) relative to median of lowest-dilution wells of all drugs (fraction); higher = more viable cells
Procedure: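 HeLa control and CRISPR DDX11 knockout cells were seeded in 384-well plates and incubated for 72 h with each of 64 […] drugs at six concentrations. Viability was read with CellTiter-Glo and normalised to the median of the lowest (6th) dilution wells of all drugs. Two biological replicates (BR1, BR2) are averaged; the concentration unit is not stated.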

[1] = drug concentration (unit not stated): 0.01, genotype: DDX11 knockout
[2] = drug concentration (unit not stated): 0.01, genotype: control (DDX11 wild type)
[3] = drug concentration (unit not stated): 0.04, genotype: DDX11 knockout
[4] = drug concentration (unit not stated): 0.04, genotype: control (DDX11 wild type)
[5] = drug concentration (unit not stated): 0.12, genotype: DDX11 knockout
[6] = drug concentration (unit not stated): 0.12, genotype: control (DDX11 wild type)
[7] = drug concentration (unit not stated): 0.37, genotype: DDX11 knockout
[8] = drug concentration (unit not stated): 0.37, genotype: control (DDX11 wild type)
[9] = drug concentration (unit not stated): 1.11, genotype: DDX11 knockout
[10] = drug concentration (unit not stated): 1.11, genotype: control (DDX11 wild type)
[11] = drug concentration (unit not stated): 3.33, genotype: DDX11 knockout
[12] = drug concentration (unit not stated): 3.33, genotype: control (DDX11 wild type)
[13] = drug concentration (unit not stated): 10, genotype: DDX11 knockout
[14] = drug concentration (unit not stated): 10, genotype: control (DDX11 wild type)
[15] = drug concentration (unit not stated): 30, genotype: DDX11 knockout
[16] = drug concentration (unit not stated): 30, genotype: control (DDX11 wild type)

SMILES	cell viability [1]	cell viability [2]	cell viability [3]	cell viability [4]	cell viability [5]	cell viability [6]	cell viability [7]	cell viability [8]	cell viability [9]	cell viability [10]	cell viability [11]	cell viability [12]	cell viability [13]	cell viability [14]	cell viability [15]	cell viability [16]
CN(Cc1cnc2nc(N)nc(N)c2n1)c1ccc(C(=O)N[C@@H](CCC(=O)O)C(=O)O)cc1 [Abitrexate (Methotrexate)]	0.864 ± 0.26	0.969 ± 0.64	0.79 ± 0.24	0.723 ± 0.34	0.772 ± 0.21	0.665 ± 0.35	0.725 ± 0.17	0.606 ± 0.33	0.462 ± 0.08	0.58 ± 0.31						
COc1cccc2c1C(=O)c1c(O)c3c(c(O)c1C2=O)C[C@@](O)(C(=O)CO)C[C@@H]3O[C@H]1C[C@H](N)[C@@H](O)[C@H](C)O1 [Epirubicin Hydrochloride]	1.02 ± 0.021	1.04 ± 0.05	0.89 ± 0.23	0.967 ± 0.084	0.596 ± 0.37	0.902 ± 0.42	0.304 ± 0.39	0.55 ± 0.72	0.0326 ± 0.0056	0.164 ± 0.21	0.0161 ± 0.003	0.0225 ± 0.011				
NC(=O)c1ccc(I)c([N+](=O)[O-])c1 [Iniparib (BSI-201)]					1.01 ± 0.022	0.996 ± 0.031	1.06 ± 0.0055	0.981 ± 0.077	1.03 ± 0.045	0.951 ± 0.08	0.996 ± 0.028	0.969 ± 0.12	1.02 ± 0.062	0.93 ± 0.17	0.839 ± 0.094	0.92546 ± 0.00092
C=CCn1c(=O)c2cnc(Nc3ccc(N4CCN(C)CC4)cc3)nc2n1-c1cccc(C(C)(C)O)n1 [AZD1775]			0.9297 ± 0.0031	0.962 ± 0.028	0.922 ± 0.021	0.951 ± 0.021	0.85 ± 0.048	0.959 ± 0.025	0.423 ± 0.12	0.615 ± 0.014	0.213 ± 0.0052	0.288 ± 0.11	0.0863 ± 0.058	0.092 ± 0.087		
CCS(=O)(=O)Nc1ccc2c(c1)/C(=C(/Nc1ccc(CN3CCCCC3)cc1)c1ccccc1)C(=O)N2 [Hesperadin]	1.038 ± 0.0037	1.02 ± 0.011	0.981 ± 0.038	0.9913 ± 0.0085	0.85 ± 0.077	0.995 ± 0.26	0.79 ± 0.011	0.966 ± 0.21	0.696 ± 0.026	0.838 ± 0.12						
CCc1cnn2c(NCc3ccc[n+]([O-])c3)cc(N3CCCC[C@H]3CCO)nc12 [Dinaciclib]	0.119 ± 0.011	0.0976 ± 0.048	0.189 ± 0.0066	0.232 ± 0.063	0.182 ± 0.011	0.239 ± 0.068	0.171 ± 0.019	0.264 ± 0.096	0.169 ± 0.0065	0.254 ± 0.097						
O=C(O)CCCc1ccc(N(CCCl)CCCl)cc1 [Chlorambucil]			1.061 ± 0.009	0.974 ± 0.056	1.02 ± 0.062	0.9875 ± 0.0097	1.05 ± 0.11	1.02 ± 0.012	1.06 ± 0.057	0.999 ± 0.021	1.07 ± 0.042	1.05 ± 0.082	0.925 ± 0.1	1.03 ± 0.051		
COC1=CC(c2cc3ccccc3[nH]2)=N/C1=C\c1[nH]c(C)cc1C [Obatoclax mesylate]			1.07 ± 0.017	1.01 ± 0.056	0.872 ± 0.087	1.05 ± 0.19	0.56 ± 0.044	0.728 ± 0.13	0.307 ± 0.026	0.415 ± 0.13	0.25 ± 0.017	0.344 ± 0.14	0.141 ± 0.062	0.0791 ± 0.041		
CCCCCCNC(=O)n1cc(F)c(=O)[nH]c1=O [Carmofur]			1.01 ± 0.038	0.998 ± 0.026	1.02 ± 0.019	1.007 ± 0.0099	1.09 ± 0.081	1.05 ± 0.044	1.02 ± 0.093	1.07 ± 0.22	0.956 ± 0.24	1.03 ± 0.46	0.857 ± 0.2	0.924 ± 0.39		
CCn1nc(C2CCN(C(=O)CCO)CC2)nc1-c1cnc(N)c(-c2nnc(C(C)(C)C)o2)n1 [AZD8835]			1.08 ± 0.046	1.07 ± 0.014	0.987 ± 0.09	1.05 ± 0.027	0.908 ± 0.098	0.988 ± 0.078	0.876 ± 0.059	0.98 ± 0.12	0.803 ± 0.077	0.996 ± 0.057	0.785 ± 0.052	1.05 ± 0.03		
COc1cccc2c1C(=O)c1c(O)c3c(c(O)c1C2=O)C[C@@](O)(C(=O)CO)C[C@@H]3O[C@H]1C[C@H](N)[C@H](O)[C@H](C)O1 [Doxorubicin (Adriamycin)]	1.02 ± 0.03	0.9786 ± 0.0019	0.923 ± 0.087	0.986 ± 0.0043	0.75 ± 0.18	0.96 ± 0.41	0.328 ± 0.4	0.679 ± 0.6	0.024 ± 0.0057	0.153 ± 0.2	0.0172 ± 0.0017	0.0179 ± 0.006				
CN1CC[C@H](c2c(O)cc(O)c3c(=O)cc(-c4ccccc4Cl)oc23)[C@H](O)C1 [Alvocidib (Flavopiridol)]	1.03 ± 0.079	1.02 ± 0.067	1.11 ± 0.067	1.09 ± 0.031	0.972 ± 0.013	1.16 ± 0.29	0.106 ± 0.023	0.172 ± 0.022	0.163 ± 0.036	0.244 ± 0.086	0.0793 ± 0.033	0.11 ± 0.0096				
CC(=O)c1c(C)c2cnc(Nc3ccc(N4CCNCC4)cn3)nc2n(C2CCCC2)c1=O [Palbociclib]					1.02 ± 0.084	1.017 ± 0.00052	1.0721 ± 0.001	1.01 ± 0.017	1.009 ± 0.0063	1.02 ± 0.025	1.03 ± 0.054	1.01 ± 0.022	0.9 ± 0.0099	0.986 ± 0.11	0.658 ± 0.045	0.893 ± 0.26
Nc1ncn([C@H]2C[C@H](O)[C@@H](CO)O2)c(=O)n1 [Decitabine]			1.062 ± 0.0019	1.0513 ± 0.0006	1.01 ± 0.16	1.06 ± 0.019	1.03 ± 0.12	1.03 ± 0.043	0.973 ± 0.012	1.05 ± 0.054	0.975 ± 0.099	1.1 ± 0.097	0.867 ± 0.018	1.11 ± 0.086		
COc1cc(Nc2ncc3c(n2)-c2ccc(Cl)cc2C(c2c(F)cccc2OC)=NC3)ccc1C(=O)O [Alisertib]	1.056 ± 0.0065	1.044 ± 0.0066	0.996 ± 0.016	1.03 ± 0.1	0.752 ± 0.019	0.966 ± 0.34	0.7 ± 0.092	0.844 ± 0.23	0.859 ± 0.029	0.919 ± 0.16	0.781 ± 0.041	0.827 ± 0.12				
O=c1[nH]cc(F)c(=O)[nH]1 [Adrucil (Fluorouracil)]			1 ± 0.034	0.976 ± 0.016	1.03 ± 0.046	1 ± 0.031	1.06 ± 0.046	1.03 ± 0.032	1.01 ± 0.073	1.05 ± 0.23	0.928 ± 0.26	1.02 ± 0.45	0.817 ± 0.14	0.945 ± 0.37		
Cn1cnc2c(F)c(Nc3ccc(Br)cc3Cl)c(C(=O)NOCCO)cc21 [Selumetinib (AZD6244)]			0.991 ± 0.022	0.985 ± 0.059	0.963 ± 0.029	0.957 ± 0.085	0.9 ± 0.078	0.95 ± 0.15	0.902 ± 0.082	0.955 ± 0.12	0.855 ± 0.067	0.935 ± 0.22	0.744 ± 0.13	0.913 ± 0.38		
CC[C@@]1(O)C(=O)OCc2c1cc1n(c2=O)Cc2cc3c(CN(C)C)c(O)ccc3nc2-1 [Topotecan HCl]	0.74 ± 0.27	0.86 ± 0.14	0.519 ± 0.38	0.709 ± 0.57	0.206 ± 0.19	0.228 ± 0.21	0.0639 ± 0.033	0.0738 ± 0.043	0.0268 ± 0.0046	0.0567 ± 0.046	0.0244 ± 0.0069	0.0265 ± 0.01				
O=C(O)C1(C(=O)O)CCC1.[NH2-].[NH2-].[Pt+2] [Carboplatin]					0.981 ± 0.017	1.013 ± 0.0026	0.909 ± 0.031	1.03 ± 0.039	0.829 ± 0.04	1.05 ± 0.14	0.425 ± 0.056	0.904 ± 0.45	0.165 ± 0.021	0.331 ± 0.16	0.0472 ± 0.0054	0.0483 ± 0.0055
Nc1nc(Cl)nc2c1ncn2[C@@H]1O[C@H](CO)[C@@H](O)[C@@H]1F [Clofarabine]	1.03 ± 0.061	1.04 ± 0.013	0.967 ± 0.12	0.999 ± 0.11	0.699 ± 0.46	0.887 ± 0.6	0.177 ± 0.19	0.181 ± 0.2	0.0355 ± 0.013	0.0535 ± 0.038						
Nc1ncn([C@@H]2O[C@H](CO)[C@@H](O)[C@H]2O)c(=O)n1 [Azacitidine]			1.03 ± 0.04	1.03 ± 0.044	1.03 ± 0.019	1.04 ± 0.0078	1.01 ± 0.046	1.05 ± 0.021	1.0191 ± 0.00066	1.05 ± 0.013	1.05 ± 0.063	1.03 ± 0.028	0.872 ± 0.12	0.89 ± 0.28		
